Patent US9096544B2, “Therapeutic compounds” (Wayne State University, priority 2009, dated 2015)

Assays:
FFMA-AML cells = assay: Test D: inhibition of FFMA-AML growth in NOD-SCID mice (survival); type: in vivo
Procedure: FIG. 6 illustrates 3-Cl-AHPC and compound 16 inhibition of FFMA-AML cell proliferation in NOD-SCID mice and prolongation of their survival. A) Sixteen NOD-SCID mice, which had been randomized into two groups of eight each, were injected through the tail vein with 1×10^6 FFMA-AML cells. Intravenous injection of vehicle or 3-Cl-AHPC (30 mg/kg) twice daily for 4 days was instituted 24 h later. B) An identical study was performed with the exception that 3-Cl-AHPC was administered interperitoneally. C) Twenty four NOD-SCID mice were randomized into three groups of eight. […] The mice were monitored for toxicity and survival.
Non-obese diabetic-severe combined immunodeficiency (NOD-SCID) and ICR-SCID mice were obtained from Jackson Laboratories (Bar Harbor, Me.) and Taconic Farms (Germantown, N.Y.), respectively. A) FFMA-AML and TF(v-SRC) systemic models: NOD-SCID and ICR-SCID mice (4 to 5 weeks old) were injected with either FFMA-AML or TF(v-SRC) cells intravenously. Treatment with either vehicle, 3-Cl-AHPC or compound 16 (the compound of Example 1) was instituted the following day. Once symptoms such as diarrhea, dehydration, weight loss, ascites, paralysis or general weakness became evident, mice were euthanized. B) TF(v-SRC) subcutaneous mouse model. ICR-SCID mice were trocared subcutaneously bilaterally with TF(v-SRC) tumor fragments. Animals with equal tumor weights determined as described previously (Zhang Y. et al., Blood. 2002; 100:2917-2925) were assigned to three experimental arms: 1) control (vehicle treated), 2) subcutaneously treated with compound 16, and 3) intravenously treated with compound 16. The percent increase in the host life-span (% ILS) of the FFMA-AML and TF(v-SRC) bearing mice was calculated by subtracting the […] divided by the median day of death of the AML-bearing vehicle treated mice. In order to determine the efficacy of the 3-Cl-AHPC and compound 16, survival distribution of the 3-Cl-AHPC or compound 16-treated (T) or vehicle (C) groups were compared using the log-rank test. Survival was characterized as the duration of the animal's life span 24 h after the initiation of the xenograft until an observed event (euthanasia or death). A p-value of less than 5% (p<0.05) was considered statistically significant.
The ability of 3-Cl-AHPC and compound 16 to inhibit the growth of FFMA-AML cells in NOD-SCID mice was determined. NOD-SCID mice randomly assigned to two groups of eight mice each were injected with 1 million cells through the tail vein. The mice then received either vehicle or 3-Cl-AHPC (30 mg/kg) given intravenously twice daily for 4 days. […]

[1] = Test G: effect on body weight of repeated escalating dosing (toxicity, MTD); type: in vivo; conditions: IV once a day for 7 days, 20 mg/kg increased by 25% each dose; two female mice per group
Procedure: Mice were treated with escalating doses of either compound 16 or 3-Cl-AHPC to establish the difference in toxicity (MTD) between these compounds as measured by decreased body weight (FIG. 8). Two groups of mice, each consisting of two female ICR-SCIDS mice, were injected IV with either compound 16 or 3-Cl-AHPC once a day for 7 days. The initial IV injection of 20 mg/kg for each compound was increased by 25% for each ensuing dose. Body weights were measured on each of the seven days with the final body weights determined 48 hours post final dose. […] The final weight for this mouse was recorded 2 hours after death.

[2] = system: poly(ADP-ribose)polymerase (PARP); assay: Test C: PARP cleavage; type: cell-based; conditions: FFMA-AML and TF(v-SRC) cells
Description: FIG. 5 illustrates compound 16-mediated inhibition of XIAP, c-IAP1, and phospho-Bad expression in FFMA-AML and TF(v-SRC) cells accompanied by the induction of PARP cleavage. A) XIAP, c-IAP and phospho-Bad protein expression following exposure to compound 16 assessed by Western blot. B)-D) Protein expression levels quantified using laser densitometry. The expression levels of XIAP, c-IAP1 and phospho-Bad were normalized to the respective α-tubulin level and compared to their relative levels in the controls, which were given an arbitrary value of 1.
The proteins c-IAP1, c-IAP2, and XIAP bind caspases resulting in inhibition of caspase activity (Jin H-S. et al., Cancer Res. 2009; 69:[…]). […] The Bcl-2 family member Bad enhances apoptosis and is inactivated through phosphorylation to phosphorylated Bad (Eisenmann K. M. et al., Cancer Res. 2003; 63:8330-8337). To assess modulation of anti-apoptotic protein expression during the induction of apoptosis in the AML cells by compound 16, the expression of XIAP, c-IAP1 and phospho-Bad as well as cleavage of the DNA-damage repair poly(ADP-ribose)polymerase (PARP) was assessed following exposure of the AML cells to compound 16.

TF(v-SRC) tumors = assay: Test F: inhibition of growth of palpable TF(v-SRC) tumors; type: in vivo, SCID mice; conditions: palpable tumors of 100 mg
Procedure: FIG. 7 illustrates compound 16 inhibited TF(v-SRC) proliferation and growth in SCID mice. NOD SCID mice were randomized into two groups of eight. Each mouse was injected with 1×10^7TF(v-SRC) cells and 24 h later mice were either treated intravenously with compound 16 (20 mg/kg) or vehicle on a Monday, Wednesday and Friday schedule for five weeks. Mice were monitored for toxicity and survival. A) Survival of TF(vSRC) inoculated mice treated with compound 16, and B) absence of weight loss in compound 16 treated SCID mice. C) compound 16 inhibited palpable TF(v-SRC) growth in SCID mice. TF(v-SRC) cells were grown subcutaneously in a maintenance SCID mouse. The tumor was harvested and approximately 20 mg of tumor was subcutaneously injected utilizing a trochar into each flank of a SCID mouse. The tumors were then allowed to reach a size of 100 mg. The mice were randomized into three groups of 8 mice. […]
Non-obese diabetic-severe combined immunodeficiency (NOD-SCID) and ICR-SCID mice were obtained from Jackson Laboratories (Bar Harbor, Me.) and Taconic Farms (Germantown, N.Y.), respectively. […] Animals with equal tumor weights determined as described previously (Zhang Y. et al., Blood. 2002; 100:2917-2925) were assigned to three experimental arms: 1) control (vehicle treated), 2) subcutaneously treated with compound 16, and 3) intravenously treated with compound 16. […]

Compound | increase in the length of survival over vehicle (FFMA-AML cells; 30 mg/kg intravenously twice daily for 4 days, p value 0.0001) [%] | toxicity in treated mice (FFMA-AML cells; 3-Cl-AHPC 30 mg/kg twice daily for 4 days) | mortality [1] | cleavage of PARP [2] | increase in survival (ILS) (FFMA-AML cells; 5.0 mg/kg or 7.5 mg/kg twice a day for 4 days, tail vein, p=0.0002) [%] | toxicity in treated mice (FFMA-AML cells; compound 16 5.0 or 7.5 mg/kg twice a day) | reduction in TF(v-SRC) growth (TF(v-SRC) tumors; 20 mg/kg intravenously every other day) [%] | reduction in TF(v-SRC) growth (TF(v-SRC) tumors; 20 mg/kg subcutaneously at a remote site every other day) [%]
O=C(O)C=Cc1ccc(-c2ccc(O)c(C34CC5CC(CC(C5)C3)C4)c2)c(Cl)c1 [Compound 3-Cl-AHPC, 4-[3-(1-adamantyl)-4-hydroxyphenyl]-3-chlorocinnamic acid, reference compound] | 25 | toxicity including weight loss and decreased physical activity | One of the mice in the group treated with 3-Cl-AHPC died 48 hours after the final injection | – | – | – | – | –
O=C(O)/C=C/c1cnc(-c2ccc(O)c(C34CC5CC(CC(C5)C3)C4)c2)nc1 [Compound 16, (E)-3-[2-(3-(1-Adamantyl)-4-hydroxyphenyl)-5-pyrimidinyl]-2-propenoic acid] | – | – | – | cleavage of PARP was noted | 26 | extremely well tolerated and no toxicity was noted | 55 | 55
